These results are taken from PubChem BioAssay (NCI).

Each structure is given as a SMILES string.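 Where inhibition never reached the appropriate level, the endpoint shown equals the highest concentration tested. Otherwise, values were interpolated linearly from a five-concentration, 48-hour dose response in 96-well plates. TGI denotes the concentration required for complete inhibition of growth.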

Among the test systems are CCRF-CEM leukemia; KM12 colon; COLO 205 colon; MALME-3M melanoma; NCI-H460 lung; RPMI-8226 leukemia; A498 renal; OVCAR-5 ovarian; NCI-H522 lung; SF-539 CNS; SR leukemia; HCT-15 colon; M14 melanoma; UACC-62 melanoma; NCI/ADR-RES ovarian; DU-145 prostate; T-47D breast; PC-3 prostate; MDA-MB-231 breast.
Experiment in all cases: growth of human tumour cells (NCI), 48 h

Turning to `Clc1ccc2c(c1)C1C(CO2)C(c2ccccc2)=NN1c1ccccc1` (stereo not given), the TGI in the assay with CCRF-CEM leukemia was 99.1 µM; with KM12 colon, over 100 µM; in the assay with COLO 205 colon, over 100 µM; with MALME-3M melanoma, over 100 µM; with NCI-H460 lung, over 100 µM; with RPMI-8226 leukemia, 47.6 µM. Also, the TGI with A498 renal and with OVCAR-5 ovarian was over 100 µM each time.

In the case of `Nc1ccc2nc(Nc3ccc(F)cc3)cnc2c1`, the TGI in the assay with CCRF-CEM leukemia, in the assay with NCI-H522 lung, in the assay with KM12 colon, in the assay with COLO 205 colon, in the assay on MALME-3M melanoma and in the assay on SF-539 CNS was over 100 µM each time. The TGI in the assay with NCI-H460 lung, with SR leukemia, in the assay on HCT-15 colon, in the assay on RPMI-8226 leukemia, with M14 melanoma and in the assay with OVCAR-5 ovarian was over 100 µM throughout.

Regarding `COc1ccc(C(=O)Cc2c(C(=O)c3ccccc3)c3ccccc3n2C(=O)c2ccccc2)cc1`, the TGI with UACC-62 melanoma, with CCRF-CEM leukemia, in the assay with NCI-H522 lung, with KM12 colon, with COLO 205 colon and with MALME-3M melanoma was over 100 µM throughout. The TGI in the assay with SF-539 CNS is over 100 µM; with NCI-H460 lung, over 100 µM; in the assay with SR leukemia, over 100 µM; in the assay with HCT-15 colon, over 100 µM; with RPMI-8226 leukemia, 70.9 µM; in the assay on M14 melanoma, over 100 µM. In the assay with OVCAR-5 ovarian, this molecule came in with a TGI of over 100 µM.

For `CC1(C)O[C@@H]2[C@@H](COC(=O)c3ccccc3)C[C@@H](C#N)[C@@H]2O1`, the TGI in the assay with UACC-62 melanoma, in the assay with CCRF-CEM leukemia, in the assay on NCI/ADR-RES ovarian, in the assay on NCI-H522 lung, in the assay on KM12 colon and in the assay with COLO 205 colon was over 100 µM in each case. Also, the TGI in the assay with DU-145 prostate, with MALME-3M melanoma, with T-47D breast, in the assay on SF-539 CNS, in the assay on NCI-H460 lung and with SR leukemia was over 100 µM throughout. The TGI with PC-3 prostate, in the assay with HCT-15 colon, in the assay on RPMI-8226 leukemia, in the assay with MDA-MB-231 breast, in the assay with A498 renal and in the assay with M14 melanoma was over 100 µM each time. The molecule also registered a TGI in the assay with OVCAR-5 ovarian of over 100 µM.

For `CC(C)c1ccc(C2C3=C(N=C4SCC(=O)N42)C(=O)c2ccccc23)cc1` (stereo not given), the TGI with UACC-62 melanoma is over 100 µM; in the assay with CCRF-CEM leukemia, over 100 µM; in the assay with NCI-H522 lung, 98.7 µM; in the assay on KM12 colon it was over 100 µM; in the assay on COLO 205 colon, over 100 µM; in the assay with MALME-3M melanoma, over 100 µM. Besides, the TGI in the assay with SF-539 CNS, in the assay on NCI-H460 lung, in the assay with HCT-15 colon, with RPMI-8226 leukemia, in the assay with A498 renal and with M14 melanoma was over 100 µM each time. The molecule also showed a TGI with OVCAR-5 ovarian of over 100 µM.

`COc1cccc(NC(=O)/C(CC(=O)CC(c2ccccc2)c2c(O)c3ccccc3oc2=O)=N\NC(C)(C)C)c1OC` (stereo not given): the TGI in the assay with UACC-62 melanoma, in the assay on CCRF-CEM leukemia, in the assay with KM12 colon, in the assay on COLO 205 colon, in the assay on MALME-3M melanoma and with SF-539 CNS was over 100 µM throughout. Further, the TGI in the assay with NCI-H460 lung, in the assay with HCT-15 colon, in the assay on RPMI-8226 leukemia, with A498 renal, with M14 melanoma and with OVCAR-5 ovarian was over 100 µM throughout.

`CC(C)(C)c1cc(-c2cc(C(C)(C)C)n(-c3ccccc3)n2)nn1-c1ccccc1`: the TGI with UACC-62 melanoma, in the assay on CCRF-CEM leukemia, with NCI/ADR-RES ovarian, in the assay on NCI-H522 lung, in the assay on KM12 colon and in the assay with COLO 205 colon was over 100 µM in each case. For the same molecule, the TGI with DU-145 prostate, with T-47D breast, with SF-539 CNS, in the assay on NCI-H460 lung, in the assay on SR leukemia and in the assay with PC-3 prostate was over 100 µM in each case. Besides, the TGI with HCT-15 colon, in the assay with RPMI-8226 leukemia, in the assay on MDA-MB-231 breast, in the assay on A498 renal, in the assay with M14 melanoma and with OVCAR-5 ovarian was over 100 µM in each case.

Regarding `CNC(=O)c1n[nH]nc1Sc1c([N+](=O)[O-])ncn1C`, the TGI in the assay with UACC-62 melanoma, in the assay on CCRF-CEM leukemia, in the assay with NCI/ADR-RES ovarian, in the assay with NCI-H522 lung, in the assay on KM12 colon and with COLO 205 colon was over 100 µM throughout. Moreover, the TGI in the assay on DU-145 prostate, with T-47D breast, in the assay on SF-539 CNS, in the assay on NCI-H460 lung, in the assay with PC-3 prostate and with HCT-15 colon was over 100 µM throughout. For the same molecule, the TGI in the assay with MDA-MB-231 breast, with A498 renal, in the assay with M14 melanoma and in the assay with OVCAR-5 ovarian was over 100 µM each time.

Turning to `CC(=O)OC[C@]1(O)CC[C@@]23CC1C[C@@H]2CCC1C(C)(C)CCC[C@@]13C` (stereo not given in full), the TGI with UACC-62 melanoma turned out to be 26.2 µM; in the assay on CCRF-CEM leukemia, 25.7 µM; in the assay with NCI-H522 lung, 14.7 µM; in the assay on KM12 colon it was 26.1 µM; in the assay on COLO 205 colon, 33.1 µM; in the assay with MALME-3M melanoma, 29.5 µM. The TGI in the assay on SF-539 CNS was determined as 30.4 µM; with NCI-H460 lung it was 30.2 µM; with SR leukemia it was 23.6 µM; in the assay with HCT-15 colon, 30 µM; with RPMI-8226 leukemia it was 28.1 µM; in the assay with M14 melanoma, 26.9 µM. In the assay with OVCAR-5 ovarian, this molecule came in with a TGI of 23.5 µM.

Turning to `O=C1CCC(=O)N1Cc1ccccc1N=[N+]([O-])c1ccccc1CN1C(=O)CCC1=O`, the TGI in the assay on UACC-62 melanoma, with CCRF-CEM leukemia, in the assay with NCI-H522 lung, in the assay on KM12 colon, in the assay with COLO 205 colon and with MALME-3M melanoma was over 100 µM in each case. Besides, the TGI in the assay on SF-539 CNS, in the assay on NCI-H460 lung, in the assay with SR leukemia, with HCT-15 colon, with RPMI-8226 leukemia and in the assay with M14 melanoma was over 100 µM in each case. This molecule also came in with a TGI with OVCAR-5 ovarian of over 100 µM.

As to `CC(=O)OC1COC(Nc2ccc(C(C)=O)cc2)C(OC(C)=O)C1OC(C)=O` (stereo not given), the TGI in the assay on UACC-62 melanoma, in the assay on CCRF-CEM leukemia, with NCI-H522 lung, in the assay with KM12 colon, in the assay with COLO 205 colon and in the assay with MALME-3M melanoma was over 100 µM throughout. Moreover, the TGI with SF-539 CNS, in the assay with NCI-H460 lung, with SR leukemia, with HCT-15 colon, in the assay on RPMI-8226 leukemia and with A498 renal was over 100 µM throughout. Also, in the assay on M14 melanoma, the TGI is over 100 µM.

Consider `Cc1cc2nc(CCC(=O)O)c(=O)[nH]c2cc1C`, for which the TGI in the assay with UACC-62 melanoma, in the assay on CCRF-CEM leukemia, in the assay with NCI-H522 lung, in the assay with KM12 colon, in the assay on COLO 205 colon and in the assay with MALME-3M melanoma was over 100 µM throughout. In addition, the TGI in the assay on SF-539 CNS, in the assay on NCI-H460 lung, with SR leukemia, in the assay on HCT-15 colon, in the assay on RPMI-8226 leukemia and with A498 renal was over 100 µM throughout. The TGI in the assay on M14 melanoma and with OVCAR-5 ovarian was over 100 µM throughout.

On to `COC(=O)N1CCc2c(nc(N(C)CCO)[nH]c2=O)C1`, for which the TGI in the assay with UACC-62 melanoma, with CCRF-CEM leukemia, in the assay with NCI-H522 lung, in the assay with KM12 colon, with COLO 205 colon and with MALME-3M melanoma was over 100 µM each time. The TGI in the assay with SF-539 CNS, with NCI-H460 lung, with SR leukemia, in the assay on HCT-15 colon, in the assay with RPMI-8226 leukemia and with A498 renal was over 100 µM throughout. In addition, the TGI in the assay with M14 melanoma and in the assay on OVCAR-5 ovarian was over 100 µM in each case.

Take `Cc1ccc2ccccc2c1NC1=NCCO1`: the TGI with UACC-62 melanoma, with CCRF-CEM leukemia, in the assay on NCI/ADR-RES ovarian, with KM12 colon, with COLO 205 colon and in the assay on DU-145 prostate was over 100 µM each time. Moreover, the TGI in the assay with MALME-3M melanoma, in the assay with T-47D breast, in the assay with SF-539 CNS, with NCI-H460 lung, in the assay with SR leukemia and in the assay on HCT-15 colon was over 100 µM each time. The TGI with RPMI-8226 leukemia, in the assay on MDA-MB-231 breast, in the assay on M14 melanoma and in the assay with OVCAR-5 ovarian was over 100 µM each time.

On to `N#C/C(=C/c1ccc[nH]1)P(=O)(O)O`, for which the TGI in the assay on UACC-62 melanoma, in the assay with CCRF-CEM leukemia, with NCI-H522 lung, in the assay on KM12 colon, with COLO 205 colon and in the assay with MALME-3M melanoma was over 100 µM throughout. The TGI in the assay with SF-539 CNS, in the assay with NCI-H460 lung, in the assay with SR leukemia, with HCT-15 colon, with RPMI-8226 leukemia and with M14 melanoma was over 100 µM throughout. In the assay with OVCAR-5 ovarian, the TGI was over 100 µM.

As to `COc1cc(C2c3cc(O)c(OC)cc3C3OCC2C3CO)ccc1O` (stereo not given), the TGI in the assay with UACC-62 melanoma, in the assay with NCI/ADR-RES ovarian, in the assay with NCI-H522 lung, in the assay with KM12 colon, with COLO 205 colon and in the assay with DU-145 prostate was over 100 µM in each case. Further, the TGI in the assay with MALME-3M melanoma, in the assay on T-47D breast, in the assay with SF-539 CNS, with NCI-H460 lung, in the assay with SR leukemia and in the assay on PC-3 prostate was over 100 µM each time. The TGI in the assay with HCT-15 colon, in the assay on RPMI-8226 leukemia, with MDA-MB-231 breast, with A498 renal, in the assay with M14 melanoma and in the assay on OVCAR-5 ovarian was over 100 µM each time.

As to `CC(C)(C)OC(=O)c1cnc(Cl)cn1`, the TGI with UACC-62 melanoma was over 100 µM; with CCRF-CEM leukemia it was 72.7 µM; in the assay with NCI/ADR-RES ovarian, over 100 µM; in the assay with NCI-H522 lung, 2.78 µM; in the assay with KM12 colon it was over 100 µM; in the assay on COLO 205 colon it was over 100 µM. Besides, the TGI in the assay on DU-145 prostate, in the assay on MALME-3M melanoma, in the assay on T-47D breast, with SF-539 CNS, in the assay on NCI-H460 lung and with SR leukemia was over 100 µM throughout. For the same molecule, the TGI in the assay with PC-3 prostate was over 100 µM; in the assay with HCT-15 colon it was 27.5 µM; in the assay with RPMI-8226 leukemia, over 100 µM; in the assay with MDA-MB-231 breast, over 100 µM; in the assay with M14 melanoma it was over 100 µM; with OVCAR-5 ovarian it was over 100 µM.

Take `O=C1c2ccccc2NC(=O)C2C1C(c1ccccc1)CC2(O)c1ccccc1` (stereo not given): the TGI was over 100 µM in the assay with UACC-62 melanoma; over 100 µM in the assay with CCRF-CEM leukemia; over 100 µM in the assay with NCI/ADR-RES ovarian; over 100 µM in the assay with KM12 colon; 36.9 µM with COLO 205 colon; over 100 µM with DU-145 prostate. Further, the TGI was over 100 µM with MALME-3M melanoma; over 100 µM with T-47D breast; over 100 µM in the assay on SF-539 CNS; over 100 µM with NCI-H460 lung; over 100 µM in the assay on SR leukemia; 74.3 µM with PC-3 prostate. For the same molecule, the TGI in the assay with HCT-15 colon, with MDA-MB-231 breast, in the assay with A498 renal, in the assay on M14 melanoma and in the assay with OVCAR-5 ovarian was over 100 µM each time.
